Measured values taken from US20030171307A1, “Azalide antibiotic compositions” (Pfizer Inc., priority 2001, published 2003).

Test: Equilibration of azalide isomers I and II in heated aqueous acid, HPLC (Table 1)
Assay type: physicochemical
Conditions: isomer I prior to equilibration, for comparison

Compound: CCCNC[C@]1(O)[C@H](C)O[C@@H](O[C@H]2[C@H](C)[C@@H](OC3O[C@H](C)C[C@H](N(C)C)[C@H]3O)C(C)(O)C[C@@H](C)CN[C@H](C)[C@@H](O)[C@](C)(O)[C@@H](CC)OC(=O)[C@@H]2C)C[C@@]1(C)OC (single isomer, unassigned) [isomer I]
- % Equilibrium mixture of isomers: 98.39%
- % Impurities: 1.61%
